Assay results taken from PubChem BioAssay (NCI).
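Assay format: 96-well plates, 48-hour exposure. Here, GI50 denotes the concentration required for 50% inhibition of growth. TGI: concentration producing complete growth inhibition.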

What was measured:
Assay in all cases: inhibition of tumour cell growth, NCI panel, 48 h
[1] = system: 786-0 renal
[2] = system: A549 NSCLC
[3] = system: ACHN renal
[4] = system: BT-549 breast
[5] = system: CAKI-1 renal
[6] = system: CCRF-CEM leukemia
[7] = system: COLO 205 colon
[8] = system: DU-145 prostate
[9] = system: EKVX NSCLC
[10] = system: HCT-116 colon
[11] = system: HCT-15 colon
[12] = system: HL-60(TB) leukemia
[13] = system: HOP-62 NSCLC
[14] = system: HOP-92 NSCLC
[15] = system: HS 578T breast
[16] = system: HT29 colon
[17] = system: IGROV1 ovarian
[18] = system: K-562 leukemia
[19] = system: KM12 colon
[20] = system: LOX IMVI melanoma
[21] = system: M14 melanoma
[22] = system: MALME-3M melanoma
[23] = system: MCF7 breast
[24] = system: MDA-MB-231 breast
[25] = system: MDA-MB-435
[26] = system: MOLT-4 leukemia
[27] = system: NCI-H226 lung
[28] = system: NCI-H23 lung
[29] = system: NCI-H460 lung
[30] = system: NCI-H522 lung
[31] = system: NCI/ADR-RES ovarian
[32] = system: OVCAR-3 ovarian
[33] = system: OVCAR-4 ovarian
[34] = system: OVCAR-5 ovarian
[35] = system: OVCAR-8 ovarian
[36] = system: PC-3 prostate
[37] = system: RPMI-8226 leukemia
[38] = system: RXF 393 renal
[39] = system: SF-268 CNS
[40] = system: SF-295 CNS
[41] = system: SF-539 CNS
[42] = system: SK-MEL-2 melanoma
[43] = system: SK-MEL-28 melanoma
[44] = system: SK-MEL-5 melanoma
[45] = system: SK-OV-3 ovarian
[46] = system: SN12C renal
[47] = system: SNB-19 CNS
[48] = system: SNB-75 CNS
[49] = system: SR leukemia
[50] = system: SW-620 colon
[51] = system: T-47D breast
[52] = system: TK-10 renal
[53] = system: U251 CNS
[54] = system: UACC-257 melanoma
[55] = system: UACC-62 melanoma
[56] = system: UO-31 renal

Molecule `N#CC1=C(N)NC(=O)C(C#N)C12Nc1ccccc1S2` (configuration not stated) has a GI50 [1] of over 100 µM, a TGI [1] of over 100 µM and a GI50 [2] of over 100 µM. The TGI [2] was over 100 µM, the GI50 [3] was over 100 µM and the TGI [3] was over 100 µM. It also gave a GI50 [4] of 69.9 µM, a TGI [4] of over 100 µM and a GI50 [5] of over 100 µM. The TGI [5] was over 100 µM, the GI50 [6] was over 100 µM and the TGI [6] was over 100 µM. The GI50 [7] was 89.9 µM, the TGI [7] was over 100 µM and the GI50 [8] was over 100 µM. For the same molecule, the TGI [8] was over 100 µM, the GI50 [9] was over 100 µM and the TGI [9] was over 100 µM. The GI50 [10] was 59.4 µM, the TGI [10] was over 100 µM and the GI50 [11] was over 100 µM. It also gave a TGI [11] of over 100 µM, a GI50 [12] of 91.6 µM and a TGI [12] of over 100 µM. It also gave a GI50 [13] of over 100 µM, a TGI [13] of over 100 µM and a GI50 [14] of 74 µM. For the same molecule, the TGI [14] was over 100 µM, the GI50 [15] was 43.2 µM and the TGI [15] was over 100 µM. The GI50 [16] was over 100 µM, the TGI [16] was over 100 µM and the GI50 [17] was 18 µM. It also gave a TGI [17] of 88.4 µM, a GI50 [18] of 48.8 µM and a TGI [18] of over 100 µM. The GI50 [19] was 82 µM, the TGI [19] was over 100 µM and the GI50 [20] was 80.1 µM. The TGI [20] was over 100 µM, the GI50 [21] was 87.9 µM and the TGI [21] was over 100 µM. It also gave a GI50 [22] of 64 µM, a TGI [22] of over 100 µM and a GI50 [23] of 32.7 µM. It also gave a TGI [23] of over 100 µM, a GI50 [24] of 29.8 µM and a TGI [24] of over 100 µM. For the same molecule, the GI50 [25] was over 100 µM, the TGI [25] was over 100 µM and the GI50 [26] was 95.8 µM. The TGI [26] was over 100 µM, the GI50 [27] was 41.3 µM and the TGI [27] was over 100 µM. The GI50 [28] was 41.2 µM, the TGI [28] was over 100 µM and the GI50 [29] was over 100 µM. It also gave a TGI [29] of over 100 µM, a GI50 [30] of 19.1 µM and a TGI [30] of 60.5 µM. It also gave a GI50 [31] of 94.9 µM, a TGI [31] of over 100 µM and a GI50 [32] of 32.6 µM. The TGI [32] was over 100 µM, the GI50 [33] was over 100 µM and the TGI [33] was over 100 µM. For the same molecule, the GI50 [34] was over 100 µM, the TGI [34] was over 100 µM and the GI50 [35] was 91.3 µM. For the same molecule, the TGI [35] was over 100 µM, the GI50 [36] was 60.4 µM and the TGI [36] was over 100 µM. For the same molecule, the GI50 [37] was 43.2 µM, the TGI [37] was over 100 µM and the GI50 [38] was 20.4 µM. The TGI [38] was over 100 µM, the GI50 [39] was over 100 µM and the TGI [39] was over 100 µM. It also gave a GI50 [40] of 50.6 µM, a TGI [40] of over 100 µM and a GI50 [41] of over 100 µM. It also gave a TGI [41] of over 100 µM, a GI50 [42] of 40.7 µM and a TGI [42] of over 100 µM. It also gave a GI50 [43] of over 100 µM, a TGI [43] of over 100 µM and a GI50 [44] of over 100 µM. It also gave a TGI [44] of over 100 µM, a GI50 [45] of 66.6 µM and a TGI [45] of over 100 µM. It also gave a GI50 [46] of over 100 µM, a TGI [46] of over 100 µM and a GI50 [47] of 90.5 µM. For the same molecule, the TGI [47] was over 100 µM, the GI50 [48] was over 100 µM and the TGI [48] was over 100 µM. For the same molecule, the GI50 [49] was 52.4 µM, the TGI [49] was over 100 µM and the GI50 [50] was over 100 µM. It also gave a TGI [50] of over 100 µM, a GI50 [51] of over 100 µM and a TGI [51] of over 100 µM. It also gave a GI50 [52] of 38.9 µM, a TGI [52] of over 100 µM and a GI50 [53] of over 100 µM. It also gave a TGI [53] of over 100 µM, a GI50 [54] of 39.9 µM and a TGI [54] of over 100 µM. It also gave a GI50 [55] of 60.5 µM, a TGI [55] of over 100 µM and a GI50 [56] of over 100 µM. It also gave a TGI [56] of over 100 µM.
